molecular target: T1, Pyruvate Carboxylase (PC) (Bos taurus, UniProt Q29RK2); assay: In vitro inhibition of pyruvate carboxylase (PC) activity, coupling method; type: biochemical; details: top concentration 50 μM
T1 construct: purchased Sigma
T1 sequence (Q29RK2 21-1178): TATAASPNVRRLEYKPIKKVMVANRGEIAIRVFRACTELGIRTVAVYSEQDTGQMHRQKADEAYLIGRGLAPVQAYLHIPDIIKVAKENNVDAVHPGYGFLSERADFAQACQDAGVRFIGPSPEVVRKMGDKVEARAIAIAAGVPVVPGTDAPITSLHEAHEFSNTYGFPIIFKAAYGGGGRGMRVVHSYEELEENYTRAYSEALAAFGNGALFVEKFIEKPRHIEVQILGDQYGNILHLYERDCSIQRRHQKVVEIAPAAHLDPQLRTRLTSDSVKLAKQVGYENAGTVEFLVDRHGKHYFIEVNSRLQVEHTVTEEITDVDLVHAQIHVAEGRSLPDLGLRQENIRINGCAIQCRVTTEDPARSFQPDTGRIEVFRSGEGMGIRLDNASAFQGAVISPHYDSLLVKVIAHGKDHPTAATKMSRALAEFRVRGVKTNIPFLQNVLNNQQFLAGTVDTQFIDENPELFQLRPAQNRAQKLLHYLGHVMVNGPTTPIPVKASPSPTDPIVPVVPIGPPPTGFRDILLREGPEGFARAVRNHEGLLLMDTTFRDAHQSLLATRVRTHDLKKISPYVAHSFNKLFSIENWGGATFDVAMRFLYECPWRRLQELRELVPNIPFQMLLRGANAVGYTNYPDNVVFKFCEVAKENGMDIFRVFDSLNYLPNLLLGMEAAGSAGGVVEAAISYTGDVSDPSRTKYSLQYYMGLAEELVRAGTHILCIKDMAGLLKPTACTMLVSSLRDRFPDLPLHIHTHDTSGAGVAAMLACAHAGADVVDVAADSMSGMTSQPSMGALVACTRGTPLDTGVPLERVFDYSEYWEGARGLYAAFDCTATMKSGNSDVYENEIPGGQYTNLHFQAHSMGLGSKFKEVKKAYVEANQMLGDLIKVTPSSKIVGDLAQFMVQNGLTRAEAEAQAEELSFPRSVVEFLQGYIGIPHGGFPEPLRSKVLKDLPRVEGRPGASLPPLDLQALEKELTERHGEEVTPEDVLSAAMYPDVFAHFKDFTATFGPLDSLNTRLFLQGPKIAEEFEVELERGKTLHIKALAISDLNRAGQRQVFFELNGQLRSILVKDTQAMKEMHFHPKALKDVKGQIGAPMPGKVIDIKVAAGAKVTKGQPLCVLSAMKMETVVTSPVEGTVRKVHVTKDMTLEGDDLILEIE
Method: The in vitro analysis of the inhibitory effect of the present compound on PC activity was carried out by a coupling method. The PC reaction product oxaloacetate and β-NADH undergo a redox reaction under the catalysis of malate dehydrogenase, generating malic acid and NAD^+. Accordingly, the inhibition ability of the compound on PC can be reflected by detecting the change of absorbance value at 340 nm.
b. 65.7 μL PC enzyme reaction buffer (201 mM triethanolamine, 7.5 mM magnesium sulfate, 0.18% bovine serum albumin) was added to each well of a 96-well dilution plate (249944, Nunc), and then 1 μL of the serially diluted compound to be tested in step a was added to each well.
c. 10 μL of compound (prepared in step b) was added to each well of a 384-well test plate (3702, Corning). The reaction system with ZnCl2 at a final concentration of 500 μM was used as positive control; the reaction system with no compound but DMSO at a final concentration of 0.5% was used as negative control.
d. 10 μL of PC enzyme (Sigma, 0.15 U/ml stock solution of PC enzyme dissolved in 0.15 mM Tris-HCl pH 7.4, 0.006 mM Mg(AcO)2, 0.15% glycerol, and 0.003 mM EDTA) was added to each well of the 384-well test plate (prepared in step c), centrifuged at 1000 rpm for 1 min, and incubated at room temperature for 15 min.
e. 10 μL of substrate mixture (1.5 mM sodium pyruvate, 1.5 mM ATP, 0.15 mM acetyl-CoA, 45 mM sodium bicarbonate, 0.69 mM NADH, 3 U/ml malate dehydrogenase, 201 mM triethanolamine, 7.5 mM magnesium sulfate, and 0.18% bovine serum albumin) was added to each well of the 384-well test plate (prepared in step d), and centrifuged at 1000 rpm for 1 min. The final concentrations of each component in the PC enzymatic reaction system: 0.05 U/ml pyruvate carboxylase, 0.5 mM sodium pyruvate, 0.5 mM ATP, 15 mM sodium bicarbonate, 0.23 mM β-NADH, 1 U/ml malic acid dehydrogenase, and 0.05 mM acetyl-CoA. Test compound concentrations: 50 μM, 16.667 μM, 5.556 μM, 1.852 μM, 0.617 μM, 0.206 μM, 0.0686 μM, 0.0229 μM, 0.00763 μM, 0.00254 μM, 0.000847 μM and 0.000282 μM. The final concentration of DMSO was 0.5% (v/v).
f. The absorbance at 340 nm was read by using EnVision 2104 plate reader (Perkin Elmer) with reading every 1 min for 40 min.
GraphPad Prism 6 software was used to perform a linear fit, and the concentration of each compound and the slope of the positive and negative controls were calculated. The inhibition percentage was calculated according to the following formula: 100×[1−(compound−average value of positive control)/(average value of negative control−average value of positive control)].
IC50 of the compound was obtained using GraphPad Prism 6 software according to the following nonlinear fitting formula:
Y=Bottom+(Top−Bottom)/(1+10^((Log IC50−X)×HillSlope)), […]

IC50 | Structure (SMILES)
> 50 µM | COc1ccccc1C(CN1C(=O)C2(CC(C(=O)O)C2)C(=O)c2c1sc(-c1ncco1)c2C)OC1CCOCC1 (mixture of isomers) [Compound 8, 7′-(2-(2-methoxyphenyl)-2-((tetrahydro-2H-pyran-4-yl)oxy)ethyl)-3′-methyl-2′-(oxazol-2-yl)-4′,6′-dioxo-6′,7′-dihydro-4′H-spiro[cyclobutane-1,5′-thieno[2,3-b]pyridine]-3-carboxylic Acid]
> 50 µM | COc1ccccc1C(CN1C(=O)C2(CCC(C(=O)O)C2)C(=O)c2c1sc(-c1ncco1)c2C)OC1CCOCC1 (single isomer, unassigned) [Compound 5b, 7′-(2-(2-methoxyphenyl)-2-((tetrahydro-2H-pyran-4-yl)oxy)ethyl)-3′-methyl-2′-(oxazol-2-yl)-4′,6′-dioxo-6′,7′-dihydro-4′H-spiro[cyclopentane-1,5′-thieno[2,3-b]pyridine]-3-carboxylic Acid]
> 50 µM | COc1ccccc1C(CN1C(=O)C2(CC(C(=O)O)C2)C(=O)c2c1sc(-c1ncco1)c2C)OC1CCOCC1 (single isomer, unassigned) [Compound 8d, 7′-(2-(2-methoxyphenyl)-2-((tetrahydro-2H-pyran-4-yl)oxy)ethyl)-3′-methyl-2′-(oxazol-2-yl)-4′,6′-dioxo-6′,7′-dihydro-4′H-spiro[cyclobutane-1,5′-thieno[2,3-b]pyridine]-3-carboxylic Acid]
> 50 µM | COc1ccccc1[C@H](CN1c2sc(-c3ncco3)c(C)c2C(=O)[C@]2(C[C@H](C(=O)O)C2)C1=O)OC1CCOCC1 [Compound 8c, 7′-(2-(2-methoxyphenyl)-2-((tetrahydro-2H-pyran-4-yl)oxy)ethyl)-3′-methyl-2′-(oxazol-2-yl)-4′,6′-dioxo-6′,7′-dihydro-4′H-spiro[cyclobutane-1,5′-thieno[2,3-b]pyridine]-3-carboxylic Acid]
